Data on three compounds can be found in patent publication US20060241132A1, “Spiro derivatives and adhesion molecule inhibitors comprising the same as active ingredient” (Toray Industries, Inc. A Corporation of Japan, priority 2002, published 2006).

The target of one test is soluble VLA-4 (Homo sapiens, UniProt P05556+P13612). The test is described as follows: Inhibition of binding between CS-1 peptide and soluble VLA-4. The following applies: absorbance at 490 nm, read-out: Inhibitory activity (IC50: nM). Here is the method:
The inhibitory activity of the compound according to the present invention against the adhesion of VLA-4 may be determined by using an adhesion-measuring system in which the adhesion between VLA-4-expressing cells such as Ramos cells or Jurkat cells and fibronectin or fibronectin fragment such as a peptide containing CS-1 sequence (Gly Pro Glu He Leu Asp Val Pro Ser Thr) (hereinafter referred to as “CS-1 peptide”) immobilized on an immunoplate is measured. Alternatively, a binding-measuring system in which the adhesion between VLA-4 protein and fibronectin or fibronectin fragment such as CS-1 peptide immobilized on an immunoplate is measured may be used. In the present invention, it is preferred to evaluate the inhibitory activity of a compound using a binding-measuring system of soluble VLA-4 with CS-1 peptide (WO 98/32771), but the method is not restricted thereto. When testing the inhibitory effect of a compound, it is preferred to mix the soluble VLA-4 and the test compound beforehand.
Inhibitory Effect of Compounds Against Binding between CS-1 Peptide and Soluble VLA-4
The test compounds were evaluated in accordance with the method described in WO 98/32771. That is, in accordance with the teaching of a report (J. Bio. Chem., 262, 6886 (1987)), a conjugate between a peptide (Gys Leu His Gly Pro Glu Glu Ile Leu Asp Val Pro Ser Thr) containing CS-1 sequence and rabbit IgG (Sigma) was prepared. […]
Each compound and soluble VLA-4 (100 μl) were preliminarily reacted at room temperature for 20 minutes, and then the resulting mixture was allowed to react with the CS-1 peptide in each well at 30° C. for 3 hours. […] Then o-phenylenediamine as a substrate was added to color the reaction solution, and the absorbance at 490 nm was measured. From this absorbance, the binding inhibitory activity of each compound was determined.

The test system of test [1] is DNFB-induced ear swelling in Balb/c mouse. The test is described as follows: Mouse allergic inflammation: DNFB-induced ear swelling after anti-DNP IgE sensitization. The following applies: male Balb/c mouse, anti-DNP IgE sensitized. Type of test: in vivo. Here is the method: Inhibitory Effect of Compounds Against Mouse Allergic Inflammation
Using a seven-week old male Balb/c mouse (Charles River Japan, Inc.), sensitization was carried out by intravenously administering anti-DNP mouse IgE antibody. Twenty-four hours after sensitization, 0.38% DNFB (2,4-dinitrofluorobenzene) which was dissolved in a mixed solution of acetone:olive oil at 4:1 was applied to the right auricle of the mouse to induce inflammation. The thickness of both auricles was measured each hour after induction with a thickness gauge to calculate the ear swelling ratio (%) after induction versus pre-induction. The test compounds were dissolved in ethanol for applying to the auricle before induction.

soluble VLA-4, sequence (P13612 35-977 limits assumed): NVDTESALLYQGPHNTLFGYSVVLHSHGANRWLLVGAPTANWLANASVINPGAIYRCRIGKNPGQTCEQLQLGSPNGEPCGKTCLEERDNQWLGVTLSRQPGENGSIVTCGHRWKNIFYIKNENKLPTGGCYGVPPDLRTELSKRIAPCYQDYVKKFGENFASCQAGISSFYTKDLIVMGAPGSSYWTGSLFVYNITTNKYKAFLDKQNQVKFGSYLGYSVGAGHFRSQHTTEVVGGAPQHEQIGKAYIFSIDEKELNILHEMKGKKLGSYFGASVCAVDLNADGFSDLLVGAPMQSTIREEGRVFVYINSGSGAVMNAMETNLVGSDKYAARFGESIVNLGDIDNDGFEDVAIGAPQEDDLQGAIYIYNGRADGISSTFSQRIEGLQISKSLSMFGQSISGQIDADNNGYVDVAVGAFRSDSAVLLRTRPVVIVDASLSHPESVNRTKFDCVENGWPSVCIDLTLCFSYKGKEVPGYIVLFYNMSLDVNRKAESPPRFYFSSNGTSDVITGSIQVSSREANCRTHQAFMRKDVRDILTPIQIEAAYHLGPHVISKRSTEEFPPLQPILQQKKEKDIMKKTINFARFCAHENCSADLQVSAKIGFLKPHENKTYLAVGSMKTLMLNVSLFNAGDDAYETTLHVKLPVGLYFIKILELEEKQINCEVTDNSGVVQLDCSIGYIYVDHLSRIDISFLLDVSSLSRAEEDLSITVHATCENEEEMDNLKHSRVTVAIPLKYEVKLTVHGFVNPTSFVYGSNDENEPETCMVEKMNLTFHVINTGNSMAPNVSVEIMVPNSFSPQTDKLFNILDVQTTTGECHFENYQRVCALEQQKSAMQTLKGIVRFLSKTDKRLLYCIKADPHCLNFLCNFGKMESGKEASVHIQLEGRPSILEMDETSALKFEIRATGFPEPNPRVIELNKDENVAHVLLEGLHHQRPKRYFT
soluble VLA-4, sequence (P05556 21-728 limits assumed): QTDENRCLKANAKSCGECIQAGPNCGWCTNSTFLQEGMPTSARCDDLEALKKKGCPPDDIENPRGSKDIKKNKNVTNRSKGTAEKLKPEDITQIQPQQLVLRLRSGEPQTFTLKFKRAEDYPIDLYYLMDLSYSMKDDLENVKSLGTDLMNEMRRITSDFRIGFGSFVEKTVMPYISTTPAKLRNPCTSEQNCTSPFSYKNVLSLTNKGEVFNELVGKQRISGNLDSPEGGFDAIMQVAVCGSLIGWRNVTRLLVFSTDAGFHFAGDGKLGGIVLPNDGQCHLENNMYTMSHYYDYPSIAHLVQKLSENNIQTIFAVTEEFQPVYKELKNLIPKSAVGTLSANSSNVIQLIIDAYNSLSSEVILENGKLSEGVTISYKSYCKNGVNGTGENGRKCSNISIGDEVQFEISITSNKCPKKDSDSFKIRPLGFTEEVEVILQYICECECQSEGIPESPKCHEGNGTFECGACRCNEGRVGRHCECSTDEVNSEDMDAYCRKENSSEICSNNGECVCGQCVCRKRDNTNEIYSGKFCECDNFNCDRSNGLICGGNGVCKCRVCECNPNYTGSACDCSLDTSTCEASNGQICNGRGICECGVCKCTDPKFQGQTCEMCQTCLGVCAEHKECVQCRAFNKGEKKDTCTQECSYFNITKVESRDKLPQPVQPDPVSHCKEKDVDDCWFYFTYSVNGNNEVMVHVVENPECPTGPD

As a reminder, the IC50 is the point on the concentration scale where inhibition reaches its midpoint. As for `Cc1cccc(Cl)c1S(=O)(=O)NC(CNC(=O)N1CCC2(CC1)C(=O)N(C)CN2c1ccccc1)C(=O)O` (centres unmarked) [Compound 8, 2-(((2-Chloro-6-methylphenyl)sulfonyl)amino)-3-((2,4,8-triaza-2-methyl-1-oxo-4-phenylspiro[4.5]dec-8-yl)carbonylamino)propanoic acid], the IC50 at soluble VLA-4 stood at 110 nM.

For the compound `CC(=O)N1CCC[C@H]1C(=O)NC(CNC(=O)N1CCC2(CC1)C(=O)NCN2c1ccccc1)C(=O)O` (stereo partly drawn) [Compound 16, 2-(((2S)-1-Acetylpyrrolidine-2-yl)carbonylamino)-3-((2,4,8-triaza-1-oxo-4-phenylspiro[4.5]dec-8-yl)carbonylamino)propanoic acid], the “ED 50 value, suppression of the increase in the ratio of ear swelling” value in test [1] (0.38% DNFB on right auricle, compound in ethanol applied to the auricle before induction) was 0.8 mg/kg. Besides, the “suppression of the increase in the ratio of ear swelling from DNFB induction” value in test [1] (DNFB-induced, compound applied to the auricle before induction) is on record as “suppressed the increase in the ratio of ear swelling in a dose-dependent manner”. Further, on soluble VLA-4, the IC50 was 110 nM.

As to `CC(=O)N1CCCCC1C(=O)NC(CNC(=O)N1CCC2(CC1)C(=O)NCN2c1ccccc1)C(=O)O` (centres unmarked) [Compound 18, 2-((1-Acetyl(2-piperidyl))carbonylamino)-3-((2,4,8-triaza-1-oxo-4-phenylspiro[4.5]dec-8-yl)carbonylamino)propanoic acid], the IC50 on soluble VLA-4 is 65 nM.
